Experimental data reported in patent publication US9029413B2, “Treatment of viral infections by modulation of host cell metabolic pathways” (The Trustees of Princeton University, priority 2007, dated 2015).
“Also recorded” adds a separate entry of the source. Where two headings read alike, the source gives them in different places.

Assays:
[1] = system: human cytomegalovirus (HCMV); type: cell-based
class III PI(3)K = class III PI(3)K (Homo sapiens, UniProt Q8NEB9); details: cited from earlier work
class III PI(3)K, sequence (Q8NEB9 whole entry): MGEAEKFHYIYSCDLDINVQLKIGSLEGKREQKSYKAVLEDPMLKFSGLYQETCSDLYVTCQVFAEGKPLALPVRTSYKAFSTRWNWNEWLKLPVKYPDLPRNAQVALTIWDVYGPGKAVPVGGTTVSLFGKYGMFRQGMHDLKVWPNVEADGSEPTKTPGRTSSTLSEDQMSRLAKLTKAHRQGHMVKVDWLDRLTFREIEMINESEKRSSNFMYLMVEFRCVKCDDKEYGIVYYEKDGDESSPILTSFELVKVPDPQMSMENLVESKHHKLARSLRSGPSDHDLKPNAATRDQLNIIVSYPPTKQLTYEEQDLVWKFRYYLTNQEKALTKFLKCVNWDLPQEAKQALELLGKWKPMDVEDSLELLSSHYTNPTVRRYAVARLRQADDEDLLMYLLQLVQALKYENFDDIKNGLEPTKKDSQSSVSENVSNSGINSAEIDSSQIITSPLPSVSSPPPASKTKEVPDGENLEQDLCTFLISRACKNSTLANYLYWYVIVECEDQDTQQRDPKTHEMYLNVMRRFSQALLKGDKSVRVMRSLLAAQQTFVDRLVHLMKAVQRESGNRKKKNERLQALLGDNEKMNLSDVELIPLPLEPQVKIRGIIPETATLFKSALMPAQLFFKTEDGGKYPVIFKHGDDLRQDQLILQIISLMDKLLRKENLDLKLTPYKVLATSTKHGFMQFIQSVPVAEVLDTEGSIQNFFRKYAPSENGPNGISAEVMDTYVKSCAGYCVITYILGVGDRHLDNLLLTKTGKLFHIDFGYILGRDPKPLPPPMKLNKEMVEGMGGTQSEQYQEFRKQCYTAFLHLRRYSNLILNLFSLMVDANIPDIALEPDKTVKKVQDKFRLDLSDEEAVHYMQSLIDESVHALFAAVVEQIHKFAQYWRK

HBV = details: cited from earlier work
HCV replicon = details: cited from earlier work
Huh7 ET cells = assay: Toxicity in Huh7 ET cultures (neutral red dye uptake); details: TOFA 10 μg/mL or 30 μg/mL
West Nile virus (WNV) = assay: Extracellular viral RNA from WNV-infected Vero cells, real-time quantitative RT-PCR; type: cell-based; details: TOFA 20 μg/mL
Method: (§1) WNV and DV, members of the Flavivirus family of positive-strand RNA viruses, cause severe disease in humans. […] A reduction in the amount extracellular viral RNA or a delay in the accumulation of extracellular viral RNA during the drug treatment period will be indicative of anti-WNV or anti-DV activity. […] TOFA at 20 μg/mL results in ˜10-fold reduction, sometime greater, in accumulation of extracellular viral RNA. The accumulation of extracellular viral RNA is also delay compared to untreated cells.

[2] = cited from earlier work
[3] = system: HCMV, influenza A, HIV-1, HBV or HCV; assay: Viral replication with a combination of ACC inhibitor and HMG-CoA reductase inhibitor; type: cell-based; details: in the presence of a therapeutically effective concentration of the active form of lovastatin
host cell = assay: Host cell toxicity of the TOFA and indomethacin combination (neutral red dye assay); details: combined use of TOFA and indomethacin
Method: (§2) A non-limiting example of an assay that can be performed to assess the effect of a combination of an ACC inhibitor plus Cox inhibitor on HCMV replication follows. […] In each assay, various concentrations of TOFA can be combined with various concentrations of indomethacin and assayed for their effect on virus replication. In one preferred embodiment, a physiological concentration of indomethacin is held constant as the dose of TOFA is increased. Control cultures are treated with no drug, indomethacin alone or the various concentrations of TOFA alone. […] The antiviral effect of indomethacin plus each concentration of TOFA is then compared to the activity of indomethacin alone or the various concentrations of TOFA alone.

Dengue virus (DV) = assay: Extracellular viral RNA from DV-infected Vero cells, real-time quantitative RT-PCR; type: cell-based; details: TOFA 20 μg/mL
Method: as §1

[4] = system: hepatitis B virus (HBV) ayw strain; assay: Extracellular HBV DNA from HepG2-2.2.15 cells, real-time quantitative PCR
Method: In one aspect, Compounds can be added to HepG2-2.2.15 culture to test whether Compound will reduce the production of secreted HBV from cells utilizing real time quantitative PCR (TaqMan) assay to measure HBV DNA copies. Specifically, confluent cultures of HepG2-2.2.15 cells cultured on 96-well flat-bottomed tissue culture plates and are treated with various concentration of daily doses of Compounds. HBV virion DNA in the culture medium can be assessed 24 hours after the last treatment by quantitative blot hybridization or real time quantitative PCR (TaqMan) assay. […] Lamivudine (3TC) can be used as a positive assay control.
As noted in section 5.4, HepG2-2.2.15 (Sells et al., PNAS 84, 1005-9, 1987) is a stable cell line containing the HBV ayw strain genome. Compounds blocking any step of viral replication and release can be assayed in these cells (Korba & Milman, Antiviral Res. 15:217-28, 1991). […] The medium with the ACC inhibitor is replaced every 24 hours, and media samples are removed after drug treatment for 24, 48, 72 or 96 hours and assayed for the presence of extracellular viral DNA by real-time quantitative PCR. A reduction in the amount extracellular viral DNA or a delay in its accumulation during the treatment period with the ACC inhibitor is indicative of anti-HBV activity. […] Lamivudine (3TC) is used as a positive assay control for inhibition of the production of extracellular HBV DNA (Korba & Gerin, Antivir. Res. 19:55-70, 1992).

[5] = system: HCMV-infected fibroblasts (MRC-5 cells); assay: Effect on the metabolome of HCMV-infected fibroblasts (LC-MS/MS); type: cell-based, human; details: TOFA 20 μg/mL for 48 h
Method: Primary fibroblasts (MRC-5 cells) were grown in DMEM (high glucose) containing 7.5% FBS and infected at a multiplicity of 3.0 plaque forming units per cell (control cells were mock infected instead of virally infected). […] Mock-infected cells were then returned to growth medium (+DMSO vehicle) for 48 h. […] Metabolites were extracted into the methanol:water and samples analyzed by LC-MS/MS for a diversity of metabolites as described herein.

coxsackie B3 virus = details: cited from earlier work
HCMV = details: TOFA 10 μg/mL
Method: as §2

HCV RNA replicon = HCV RNA replicon luciferase (LUC) reporter assay in Huh7 ET cells
[6] = dose 30 μg/mL, MOI 3.0, 72 hours post infection, two independent experiments, each with its own controls
[7] = dose 60 μg/mL, MOI 3.0, 72 hours post infection

Method for host cells: The toxicity of the diverse ACC inhibitors on host cells was determined by visual inspection of cell lawns and neutral red viability assay.

SMILES: Cn1cnc(N)c2ncnc1-2 [3-methyladenine]
- inhibition of HCMV replication (relative infectious units in medium) ([1]; 3-methyladenine 5 mM, multiplicity of 0.01 pfu/cell): has antiviral activities; also recorded: inhibits the replication of human cytomegalovirus
- inhibition of class III PI(3)K (class III PI(3)K): inhibits class III PI(3)K

SMILES: O=C(c1c2ccccc2cc2ccccc12)N1CCC(N2CCC[C@@H](C(=O)N3CCOCC3)C2)CC1 [CP-640186]
- inhibition of HCMV replication ([1]; as stated in the text for FIGS. 18 and 19, dose not given): approximately 50 fold
- Fold inhibition of viral replication [1, 6]: 89.6 fold
- Viral yield [1, 6]: 16000 pfu/mL
- toxicity on host cells by neutral red viability assay (host cells): indistinguishable from DMSO control

SMILES: CCOC(=O)C1(CCCCCCOc2ccc(Cl)cc2)CO1 (stereo not drawn) [Etomoxir]
- reduction of HCMV viral replication ([1]; Etomoxir 5 μM, AD169, multiplicity of infection 1.0, harvested 96 hours post infection): more than 1 log

SMILES: CC[C@H](C)C(=O)O[C@H]1C[C@@H](C)C=C2C=C[C@H](C)[C@H](CC[C@@H]3C[C@@H](O)CC(=O)O3)[C@H]21 [Lovastatin, lovastatin]
- production of infectious HBV particles (HBV): does not block production of infectious HBV particles
- secretion of HBV surface antigen, HBsAg (HBV): inhibits secretion of the HBV surface antigen
- inhibition of replication of HCV replicons (HCV replicon; Huh-7 cells): partially inhibit

SMILES: CCCCCCCCCCCCCCOc1ccc(C(=O)O)o1 [TOFA, 5-(tetradecyloxy)-2-furoic acid]
- decrease in HCMV viral replication [1]: roughly one
- decrease in HCMV viral replication ([1]; TOFA 20 μg/mL, MOI 3.0, GFP reporter virus, released virus only, 72 hours post infection): roughly two
- Fold inhibition of viral replication [1, 6]: 427.6 fold
- Viral yield [1, 6]: 7700 pfu/mL
- Fold inhibition of viral replication [1, 7]: 82499.0 fold
- Viral yield [1, 7]: 40 pfu/mL
- host cell toxicity by neutral red dye (Huh7 ET cells): absence of host cell toxicity
- reduction in accumulation of extracellular viral RNA (WNV) (West Nile virus (WNV)): ~10 fold
- adverse effects ([2]; rat, in vivo, 100 mg/kg/day): no adverse effects are observed
- teratogenicity ([2]; rat, in vivo, 150 mg/kg/day): not teratogenic
- oral LD50 ([2]; rats, oral): greater than 5,000 mg/kg
- reduction of the TOFA concentration required to reduce viral growth and/or replication by 10-fold [3]: ≥ 2 fold
- host cell toxicity by neutral red dye assay (host cell): does not increase host cell toxicity
- reduction in accumulation of extracellular viral RNA (DV) (Dengue virus (DV)): ~10 fold
- inhibition of HCV replication (HCV replicon; TOFA 5 microg/ml, Huh-7 cells containing an HCV replicon): about 3 fold
- reduction in extracellular HBV DNA ([4]; TOFA 3 μg/mL): small but statistically significant reduction
- reduction in production of extracellular HBV DNA ([4]; TOFA 10 μg/mL (range ~3 to ~30-fold)): ~10 fold
- impairment of production of extracellular HBV DNA ([4]; TOFA 30 μg/mL, greater than 100-fold in some cases): greater than 10 fold
- NADP+ levels in HCMV-infected cells [5]: falling with TOFA treatment
- citrate concentration in HCMV-infected cells [5]: yet greater increases in citrate concentration
- malonyl-CoA concentration in HCMV-infected cells [5]: below the limit of detection; also recorded: blocked
- sensitivity of coxsackie B3 virus (coxsackie B3 virus): insensitive
- magnitude of the therapeutic effect on HCMV replication (HCMV; absence of indomethacin): ~10 fold
- magnitude of the therapeutic effect on HCMV replication (HCMV; presence of indomethacin): ~100 fold
- reduction in LUC activity (HCV RNA replicon; TOFA 10 μg/mL): ~10 fold
- reduction in LUC activity (HCV RNA replicon; TOFA 30 μg/mL, in some experiments): ≥ 100 fold
